What all share (assay type): cell-based
In data set [1] the target is T1, human TLR8 expressed from the transgene in TLR8TGCL8 mice (Homo sapiens, UniProt Q9NR97).
T1 construct: the human BAC carrying TLR8 gene was obtained from the RPCIB-753 BAC library; expressed in transfected cells; host or cells: Blood cells, bone marrow cells and PBMC of hTLR8 transgenic mice, and the whole animals; The mice came from C57BL/6NTac ES cells transfected with the BAC: the Clone 8 germline line and chimeras
T1 sequence (Q9NR97 27-1041): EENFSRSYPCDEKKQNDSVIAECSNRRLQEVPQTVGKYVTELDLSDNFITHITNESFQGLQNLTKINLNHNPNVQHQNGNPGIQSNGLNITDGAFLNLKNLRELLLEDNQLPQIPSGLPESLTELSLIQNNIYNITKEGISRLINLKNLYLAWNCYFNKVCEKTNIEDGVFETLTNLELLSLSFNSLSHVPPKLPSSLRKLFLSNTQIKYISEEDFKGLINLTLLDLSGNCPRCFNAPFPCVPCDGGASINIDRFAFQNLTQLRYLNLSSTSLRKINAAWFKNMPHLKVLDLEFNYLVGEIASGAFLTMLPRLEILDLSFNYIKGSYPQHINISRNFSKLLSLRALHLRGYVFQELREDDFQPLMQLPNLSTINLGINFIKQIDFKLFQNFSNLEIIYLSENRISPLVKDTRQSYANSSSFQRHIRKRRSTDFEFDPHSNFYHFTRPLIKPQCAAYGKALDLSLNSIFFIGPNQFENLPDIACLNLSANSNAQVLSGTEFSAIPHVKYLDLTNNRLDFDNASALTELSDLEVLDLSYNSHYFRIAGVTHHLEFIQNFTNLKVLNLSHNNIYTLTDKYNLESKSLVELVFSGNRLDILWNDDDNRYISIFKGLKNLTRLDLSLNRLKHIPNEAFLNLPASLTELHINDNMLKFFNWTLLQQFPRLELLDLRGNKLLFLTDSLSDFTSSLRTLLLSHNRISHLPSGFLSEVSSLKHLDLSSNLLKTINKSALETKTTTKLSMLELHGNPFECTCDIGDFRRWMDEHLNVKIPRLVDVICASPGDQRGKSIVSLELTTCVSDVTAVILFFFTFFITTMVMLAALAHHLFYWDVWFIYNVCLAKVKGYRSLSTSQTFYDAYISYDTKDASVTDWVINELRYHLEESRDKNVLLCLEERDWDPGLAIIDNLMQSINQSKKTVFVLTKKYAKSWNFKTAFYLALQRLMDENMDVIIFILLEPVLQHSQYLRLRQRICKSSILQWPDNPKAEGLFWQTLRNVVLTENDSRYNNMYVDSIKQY
Kind of data set: Cytokine production by bone marrow cells from TLR8TGCL8 transgenic mice (ELISA). As to conditions: 5×10^5 bone marrow cells from TLR8TGCL8 mice vs C57BL/6 WT, 100 or 50 μg/mL, 24 hours. An excerpt: (§1) PN-based TLR8 ligand stabilized immunomodulatory RNA (5′-M2[…]-/glycerol/-[…]2-5′ (M2=C6-linker); SEQ ID NO:3) and PN-based TLR7 ligand stabilized immunomodulatory RNA (5′-[…]-/glycerol/-[…]-5′ (R=7-deazaguanosine); SEQ ID NO:2) were previously identified (Lan et al., PNAS 104:13750-13755, 2007). To confirm that human TLR8 expressed from the transgene in TLR8TGCL8 mice is functional and sensitive to stimulation, the effect of TLR8-stimulating RNA PN (SEQ ID NO:3) on cytokine production was assessed. 5×10^5 blood cells from TLR8TGCL8 transgenic mice or C57BL/6 WT animals were stimulated with TLR8 agonist at different concentrations as shown in FIG. 13. 24 hours later supernatants were harvested and assayed for mouse IL-12, TNF-α and IL-6 using standard ELISA procedures. In addition, 5×10^5 bone marrow cells from TLR8TGCL8 transgenic mice or C57BL/6 WT animals were stimulated with TLR8 agonist (SEQ ID NO:3) at different concentrations as shown in FIG. 14. Mouse TNF-α and IL-6 production was assayed in supernatants harvested after 24 hours.
On the technique in general: ELISA stands for enzyme-linked immunosorbent assay.

For data set [2], the system named is human peripheral blood mononuclear cells (PBMCs). Kind of data set: Cytokine production by human PBMCs stimulated with TLR7/TLR8 RNA PN (ELISA). As to conditions: 5×10^5 human PBMCs, 20, 100 or 200 μg/mL, 24 hours. As to the method: (§2) PN-based TLR8 ligand stabilized immunomodulatory RNA (5′-M2[…]-/glycerol/-[…]2-5′ (M2=C6-linker); SEQ ID NO:3) and PN-based TLR7 ligand stabilized immunomodulatory RNA (5′-[…]-/glycerol/-[…]-5′ (R=7-deazaguanosine); SEQ ID NO:2) were previously identified (Lan et al., PNAS 104:13750-13755, 2007). The effect of these TLR7— and TLR8-stimulating RNA PN was evaluated by measuring production of IL-6 and TNF-α in human peripheral blood mononuclear cells (PBMCs) and human monocytes (FIG. 2). 5×10^5 PBMCs or 2×10^5 monocytes from healthy human donors were stimulated with 20 μg/mL, 100 μg/mL, or 200 μg/mL of either TLR8 agonist or TLR7 agonist as indicated in FIG. 2. Twenty-four hours later supernatants were assessed for presence of inflammatory cytokines IL-6 and TNF-α by standard ELISA procedure.

In a further data set the test system is Mouse splenocytes. As to the kind of experiment: IL-12 and TNF-α production by mouse splenocytes (ELISA). The following applies: 5×10^5 cells from 129 wt and TLR7KO mice, 100 μg/ml. As to the method: (§3) The effect of TLR7 and TLR8-stimulating RNA PNs was further evaluated in mouse cells by measuring IL-12 and TNF-α production (FIG. 4). Mouse splenocytes and PBMCs were prepared from 129 wt mice and TLR7KO mice, and 5×10^5 cells were stimulated with 100 μg/ml of either TLR8 or TLR7 agonist as indicated in FIG. 4. IL-12 and TNF-α were measured by ELISA using standard techniques.

Another data set deals with Mouse PBMCs. As to the kind of experiment: IL-12 and TNF-α production by mouse PBMCs (ELISA). As to conditions: 5×10^5 cells from 129 wt and TLR7KO mice, 100 μg/ml. Here is the method:
as §3

The test system of a further data set is human monocytes. As to the kind of experiment: Cytokine production by human monocytes stimulated with TLR7/TLR8 RNA PN (ELISA). The following applies: 2×10^5 human monocytes, 20, 100 or 200 μg/mL, 24 hours, compared with PBMCs. As to the method:
as §2

Another data set deals with human pDCs. Kind of data set: Cytokine production by human pDCs stimulated with TLR7/TLR8 RNA PN (ELISA). The following applies: 1×10^5 human pDCs (negative for TLR8), 100 μg/mL, 24 hours. Here is the method: The effect of TLR7 and TLR8-stimulating RNA PN were also evaluated in human pDCs by measuring production of IL-6, TNF-α, and IFN-α. […] 1×10^5 pDCs from healthy human donors were stimulated with 100 μg/mL of either TLR8 agonist or TLR7 agonist (Lan et al., PNAS 104:13750-13755, 2007) or medium alone as indicated in FIG. 3. Twenty-four hours later supernatants were assessed for presence of inflammatory cytokines IL-6, TNF-α and IFN-α by standard ELISA procedure.

Data set [3] has as its target T1, human TLR8 expressed from the transgene in TLR8TGCL8 mice. As to the kind of experiment: Cytokine production by blood cells from TLR8TGCL8 transgenic mice (ELISA). As to conditions: 5×10^5 blood cells from TLR8TGCL8 mice vs C57BL/6 WT, 200 or 100 μg/mL, 24 hours.
Description: as §1

Here are results for 2 substances from patent US9063123B2, “Transgenic mice expressing human toll-like receptor 8” (Dynavax Technologies Corporation, priority 2011, dated 2015).

“5′-M2UGCUGCUUGUG-/glycerol/-GUGUUCGUCGUM2-5′ (M2=C6-linker) (NUGCUGCUUGUGNGUGUUCGUCGUN; listed as RNA, chemistry not fully specified) [TLR8 agonist, PN-based TLR8 ligand stabilized immunomodulatory RNA, previously identified (Lan et al., PNAS 2007)]”: the “mouse TNF-α and IL-6 production by bone marrow cells” value in data set [1] was “Only cells from transgenic animals responded”. Also, the “production of IL-6 and TNF-α in PBMCs” value in data set [2] is “stimulated production”. For the same substance, the “stimulation of mouse splenocytes (IL-12 and TNF-α production)” value in the data set on Mouse splenocytes was “did not stimulate”. The “stimulation of mouse PBMCs (IL-12 and TNF-α production)” value with Mouse PBMCs is “did not stimulate”. In addition, in the data set with human monocytes, the “production of IL-6 and TNF-α in monocytes” value is reported as “to a lesser extent”. In addition, the “stimulation of pDCs (IL-6, TNF-α and IFN-α production)” value in the data set on human pDCs is listed as “did not stimulate”. For the same substance, in data set [3], the “mouse IL-12, TNF-α and IL-6 production by blood cells” value was “Only cells from transgenic animals responded”.

Consider “5′-URCURCUUCUR-/glycerol/-RUCUUCRUCRU-5′ (R=7-deazaguanosine) [TLR7 agonist]”, for which the “production of IL-6 and TNF-α in PBMCs” value in data set [2] is reported as “stimulated production”. Besides, the “production of IL-6 and TNF-α in monocytes” value in the data set with human monocytes is listed as “to a lesser extent”.
